Assay results from ChEMBL document CHEMBL3885881, “DrugMatrix”.

Species: Rattus norvegicus
Assay: DrugMatrix - Regimen: Daily Repeat
Assay type: toxicity, organism-based, Sprague-Dawley
Set-up: regimen Daily Repeat, gender Male, age 6-8 weeks
Settings: in vivo, po, route oral GAVAGE, vehicle .5 % CMC; for ABSOLUTE BASOPHIL / ABSOLUTE EOSINOPHIL / ABSOLUTE LYMPHOCYTE / ABSOLUTE MONOCYTE / ABSOLUTE SEGMENTED NEUTROPHIL / BASOPHIL / EOSINOPHIL / ERYTHROCYTE COUNT / HEMATOCRIT / HEMOGLOBIN / LEUKOCYTE COUNT / LYMPHOCYTE / MEAN CORPUSCULAR HEMOGLOBIN / MEAN CORPUSCULAR HEMOGLOBIN CONCENTRATION / MONOCYTE / NEUTROPHIL / NUCLEATED RED BLOOD CELLS / PLATELET COUNT: tissue Blood; for ALANINE AMINOTRANSFERASE / ALBUMIN / ALKALINE PHOSPHATASE / ASPARTATE AMINOTRANSFERASE / BLOOD UREA NITROGEN / CARBON DIOXIDE / CHLORIDE / CHOLESTEROL / CREATINE PHOSPHOKINASE / CREATININE / GLUCOSE / LACTATE DEHYDROGENASE / LIPASE / PHOSPHORUS / POTASSIUM / SODIUM / TOTAL BILIRUBIN / TOTAL PROTEIN / URIC ACID: tissue Plasma
[1] = 0 mg/kg, 72 h, dose level Control, time 3 day
[2] = 0 mg/kg, 120 h, dose level Control, time 5 day
[3] = 10 mg/kg, 72 h, dose level Low, time 3 day

O=C1C(CC[S+]([O-])c2ccccc2)C(=O)N(c2ccccc2)N1c1ccccc1 (stereo not given) [SULFINPYRAZONE]
ABSOLUTE BASOPHIL [1]: 0 CELLS/uL | ABSOLUTE EOSINOPHIL [1]: 171.33 CELLS/uL | ABSOLUTE LYMPHOCYTE [1]: 13776.5 CELLS/uL | ABSOLUTE MONOCYTE [1]: 180.83 CELLS/uL | ABSOLUTE SEGMENTED NEUTROPHIL [1]: 1121.33 CELLS/uL | BASOPHIL [1]: 0% | EOSINOPHIL [1]: 1% | ERYTHROCYTE COUNT [1]: 5.56 x10E6/uL | HEMATOCRIT [1]: 34.75% | HEMOGLOBIN [1]: 13.68 G/DL | LEUKOCYTE COUNT [1]: 15.25 x10E3/uL | LYMPHOCYTE [1]: 90.17% | MEAN CORPUSCULAR HEMOGLOBIN [1]: 24.6 pg | MEAN CORPUSCULAR HEMOGLOBIN CONCENTRATION [1]: 39.4 G/DL | MONOCYTE [1]: 1.17% | NEUTROPHIL [1]: 7.67% | NUCLEATED RED BLOOD CELLS [1]: 0 /100WBC | PLATELET COUNT [1]: 1342 x10E3/uL | ALANINE AMINOTRANSFERASE [1]: 49.67 u/L | ALBUMIN [1]: 4.15 G/DL | ALKALINE PHOSPHATASE [1]: 346.83 u/L | ASPARTATE AMINOTRANSFERASE [1]: 108.17 u/L | BLOOD UREA NITROGEN [1]: 17.33 mg/dL | CARBON DIOXIDE [1]: 25 mmol/L | CHLORIDE [1]: 100.83 MEQ/L | CHOLESTEROL [1]: 66.83 mg/dL | CREATINE PHOSPHOKINASE [1]: 788 u/L | CREATININE [1]: 0.18 mg/dL | GLUCOSE [1]: 151.67 mg/dL | LACTATE DEHYDROGENASE [1]: 982.5 u/L | LIPASE [1]: 10.33 u/L | PHOSPHORUS [1]: 11.23 mg/dL | POTASSIUM [1]: 6.37 MEQ/L | SODIUM [1]: 141.02 MEQ/L | TOTAL BILIRUBIN [1]: 0.18 mg/dL | TOTAL PROTEIN [1]: 5.9 G/DL | URIC ACID [1]: 1.8 mg/dL | ABSOLUTE BASOPHIL [2]: 0 CELLS/uL | ABSOLUTE EOSINOPHIL [2]: 69 CELLS/uL | ABSOLUTE LYMPHOCYTE [2]: 13632.83 CELLS/uL | ABSOLUTE MONOCYTE [2]: 139.83 CELLS/uL | ABSOLUTE SEGMENTED NEUTROPHIL [2]: 1225 CELLS/uL | BASOPHIL [2]: 0% | EOSINOPHIL [2]: 0.33% | ERYTHROCYTE COUNT [2]: 5.52 x10E6/uL | HEMATOCRIT [2]: 33.98% | HEMOGLOBIN [2]: 13.22 G/DL | LEUKOCYTE COUNT [2]: 15.07 x10E3/uL | LYMPHOCYTE [2]: 90.83% | MEAN CORPUSCULAR HEMOGLOBIN [2]: 23.95 pg | MEAN CORPUSCULAR HEMOGLOBIN CONCENTRATION [2]: 38.9 G/DL | MONOCYTE [2]: 0.83% | NEUTROPHIL [2]: 8% | NUCLEATED RED BLOOD CELLS [2]: 0 /100WBC | PLATELET COUNT [2]: 1196 x10E3/uL | ALANINE AMINOTRANSFERASE [2]: 49.17 u/L | ALBUMIN [2]: 4.2 G/DL | ALKALINE PHOSPHATASE [2]: 352.33 u/L | ASPARTATE AMINOTRANSFERASE [2]: 89.67 u/L | BLOOD UREA NITROGEN [2]: 18 mg/dL | CARBON DIOXIDE [2]: 27.67 mmol/L | CHLORIDE [2]: 101 MEQ/L | CHOLESTEROL [2]: 72.83 mg/dL | CREATINE PHOSPHOKINASE [2]: 417.5 u/L | CREATININE [2]: 0.18 mg/dL | GLUCOSE [2]: 150.5 mg/dL | LACTATE DEHYDROGENASE [2]: 517.33 u/L | LIPASE [2]: 9 u/L | PHOSPHORUS [2]: 11.87 mg/dL | POTASSIUM [2]: 6.57 MEQ/L | SODIUM [2]: 143.62 MEQ/L | TOTAL BILIRUBIN [2]: 0.2 mg/dL | TOTAL PROTEIN [2]: 6.08 G/DL | URIC ACID [2]: 1.45 mg/dL | ABSOLUTE BASOPHIL [3]: 0 CELLS/uL | ABSOLUTE EOSINOPHIL [3]: 153.67 CELLS/uL | ABSOLUTE LYMPHOCYTE [3]: 13327.33 CELLS/uL | ABSOLUTE MONOCYTE [3]: 157.33 CELLS/uL | ABSOLUTE SEGMENTED NEUTROPHIL [3]: 995 CELLS/uL | BASOPHIL [3]: 0% | EOSINOPHIL [3]: 1% | ERYTHROCYTE COUNT [3]: 5.31 x10E6/uL | HEMATOCRIT [3]: 34.03% | HEMOGLOBIN [3]: 13.67 G/DL | LEUKOCYTE COUNT [3]: 14.63 x10E3/uL | LYMPHOCYTE [3]: 91% | MEAN CORPUSCULAR HEMOGLOBIN [3]: 25.73 pg | MEAN CORPUSCULAR HEMOGLOBIN CONCENTRATION [3]: 40.17 G/DL | MONOCYTE [3]: 1% | NEUTROPHIL [3]: 7% | NUCLEATED RED BLOOD CELLS [3]: 0 /100WBC | PLATELET COUNT [3]: 1352.33 x10E3/uL | ALANINE AMINOTRANSFERASE [3]: 52.33 u/L | ALBUMIN [3]: 4.23 G/DL | ALKALINE PHOSPHATASE [3]: 353.33 u/L | ASPARTATE AMINOTRANSFERASE [3]: 105.67 u/L | BLOOD UREA NITROGEN [3]: 15.33 mg/dL | CARBON DIOXIDE [3]: 25.67 mmol/L | CHLORIDE [3]: 100.33 MEQ/L | CHOLESTEROL [3]: 80.33 mg/dL | CREATINE PHOSPHOKINASE [3]: 490.67 u/L | CREATININE [3]: 0.21 mg/dL | GLUCOSE [3]: 150.33 mg/dL | LACTATE DEHYDROGENASE [3]: 722 u/L | LIPASE [3]: 10.33 u/L | PHOSPHORUS [3]: 12.1 mg/dL | POTASSIUM [3]: 6.22 MEQ/L | SODIUM [3]: 143.2 MEQ/L | TOTAL BILIRUBIN [3]: 0.2 mg/dL | TOTAL PROTEIN [3]: 6.03 G/DL
